Measurements: ChEMBL document CHEMBL1201862, “PubChem BioAssay data set” (2004)
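Values below derive from 48-hour exposures of cells grown in 96-well plates, with endpoints linearly interpolated between the two concentrations bracketing the appropriate inhibition level. The concentration for 50% growth inhibition is given as GI50.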 Calls of active or inactive are those of the source. Cut-off read from the data, not from the text of the source: active = GI50 up to about 1.1 µM and inactive = higher.

What was measured:
Assay in all cases: DTP human tumour cell line panel, 48 h
EKVX = tested on: EKVX
SW-620 = tested on: SW-620
SK-OV-3 = tested on: SK-OV-3
HT-29 = tested on: HT-29
SF-268 = tested on: SF-268
UO-31 = tested on: UO-31
SF-539 = tested on: SF-539
OVCAR-5 = tested on: OVCAR-5
KM12 = tested on: KM12
SN12C = tested on: SN12C
HCT-15 = tested on: HCT-15
U-251 = tested on: U-251
OVCAR-3 = tested on: OVCAR-3
SK-MEL-2 = tested on: SK-MEL-2
UACC-62 = tested on: UACC-62
SK-MEL-28 = tested on: SK-MEL-28
K562 = tested on: K562
HCT-116 = tested on: HCT-116
MOLT-4 = tested on: MOLT-4
M14 = tested on: M14

Row | SMILES | GI50 (EKVX) | GI50 (SW-620) | GI50 (SK-OV-3) | GI50 (HT-29) | GI50 (SF-268) | GI50 (UO-31) | GI50 (SF-539) | GI50 (OVCAR-5) | GI50 (KM12) | GI50 (SN12C) | GI50 (HCT-15) [µM] | GI50 (U-251) | GI50 (OVCAR-3) | GI50 (SK-MEL-2) | GI50 (UACC-62) | GI50 (SK-MEL-28) | GI50 (K562) | GI50 (HCT-116) | GI50 (MOLT-4) | GI50 (M14)
1 | CSC1(SC2=NCCN2)SC2(NCCN2)S1 | 20.3 µM (inactive) | 9.04 µM (inactive) | 21.6 µM (inactive) | 18.7 µM (inactive) | 18.2 µM (inactive) | 17.3 µM (inactive) | 16.7 µM (inactive) | 19.5 µM (inactive) | 2.3 µM (inactive) | 20.7 µM (inactive) | 17.7 | 17.9 µM (inactive) | 15.8 µM (inactive) | 19.2 µM (inactive) | 16.9 µM (inactive) | 20.2 µM (inactive) | 12.5 µM (inactive) | 17 µM (inactive) | 10.8 µM (inactive) | 21.3 µM (inactive)
2 | Nc1nc(N)nc(CC(=O)O)n1 | > 100 µM (inactive) | > 100 µM (inactive) | > 100 µM (inactive) | > 100 µM (inactive) | > 100 µM (inactive) | > 100 µM (inactive) | > 100 µM (inactive) | > 100 µM (inactive) | > 100 µM (inactive) | > 100 µM (inactive) | > 100 | > 100 µM (inactive) | > 100 µM (inactive) | > 100 µM (inactive) | > 100 µM (inactive) | > 100 µM (inactive) | > 100 µM (inactive) | > 100 µM (inactive) | > 100 µM (inactive) | > 100 µM (inactive)
3 | CC(=O)NNc1nc(C)c(C(/C=C/c2ccc(Cl)cc2)=N\NS(=O)(=O)c2ccc(C)cc2)s1 | > 100 µM (inactive) | > 100 µM (inactive) | > 100 µM (inactive) | > 100 µM (inactive) | > 100 µM (inactive) | > 100 µM (inactive) | > 100 µM (inactive) | > 100 µM (inactive) | > 100 µM (inactive) | > 100 µM (inactive) | > 100 | > 100 µM (inactive) | > 100 µM (inactive) | > 100 µM (inactive) | > 100 µM (inactive) | > 100 µM (inactive) | > 100 µM (inactive) | > 100 µM (inactive) | > 100 µM (inactive) | > 100 µM (inactive)
4 | COC(=O)CNS(=O)(=O)c1ccc(-c2c3nc(c(-c4ccc(S(=O)(=O)NCC(=O)OC)cc4)c4ccc([nH]4)c(-c4ccc(S(=O)(=O)NCC(=O)OC)cc4)c4nc(c(-c5ccc(S(=O)(=O)NCC(=O)OC)cc5)c5ccc2[nH]5)C=C4)C=C3)cc1 | > 100 µM (inactive) | > 100 µM (inactive) | > 100 µM (inactive) | > 100 µM (inactive) | > 100 µM (inactive) | > 100 µM (inactive) | > 100 µM (inactive) | > 100 µM (inactive) | 50.7 µM (inactive) | > 100 µM (inactive) | > 100 | 82.6 µM (inactive) | > 100 µM (inactive) | > 100 µM (inactive) | 62.2 µM (inactive) | > 100 µM (inactive) | > 100 µM (inactive) | > 100 µM (inactive) | > 100 µM (inactive) | 18.7 µM (inactive)
5 | COc1ccc(N2C(=O)[C@@H]3[C@H](C2=O)c2[nH]c4ccccc4c2C2CCC(C(C)(C)C)C[C@@H]23)cc1 (stereo not given in full) | 28.4 µM (inactive) | 35.2 µM (inactive) | 18.6 µM (inactive) | 29.2 µM (inactive) | 29.9 µM (inactive) | > 47.4 µM (inactive) | 22.9 µM (inactive) | > 100 µM (inactive) | 38.7 µM (inactive) | 14 µM (inactive) | > 90.4 | 20.9 µM (inactive) | 21.5 µM (inactive) | 30.4 µM (inactive) | 19.1 µM (inactive) | 34.4 µM (inactive) | 14.5 µM (inactive) | 30.5 µM (inactive) | 14.4 µM (inactive) | 29.2 µM (inactive)
6 | N#Cc1nc(COCCOCc2ccc(F)cc2)oc1N | > 100 µM (inactive) | > 100 µM (inactive) | > 100 µM (inactive) | > 100 µM (inactive) | > 100 µM (inactive) | 50.4 µM (inactive) | > 100 µM (inactive) | > 100 µM (inactive) | > 100 µM (inactive) | > 100 µM (inactive) | > 100 | > 100 µM (inactive) | > 100 µM (inactive) | > 100 µM (inactive) | > 100 µM (inactive) | > 100 µM (inactive) | > 100 µM (inactive) | > 100 µM (inactive) | > 100 µM (inactive) | > 100 µM (inactive)
7 | COc1ccc(C(SCCO)(c2ccccc2)c2ccc(OC)cc2)cc1 | 13.2 µM (inactive) | 15.3 µM (inactive) | 10.8 µM (inactive) | 13.9 µM (inactive) | 10.2 µM (inactive) | 17.6 µM (inactive) | 14.7 µM (inactive) | 15.2 µM (inactive) | 5.38 µM (inactive) | 14.5 µM (inactive) | 13.5 | 4.46 µM (inactive) | 16.3 µM (inactive) | 11.1 µM (inactive) | 11.5 µM (inactive) | 16.3 µM (inactive) | 16.7 µM (inactive) | 8.41 µM (inactive) | 12.4 µM (inactive) | 9.31 µM (inactive)
8 | COc1ccc2nc3c([N+](=O)[O-])ccc(NCCN(C)C)c3c(N)c2c1 | 1.71 µM (inactive) | 0.181 µM (active) | 1.61 µM (inactive) | 0.508 µM (active) | 1.34 µM (inactive) | 1.35 µM (inactive) | 1.56 µM (inactive) | 1.52 µM (inactive) | 0.469 µM (active) | 1.33 µM (inactive) | 1.16 | 1.66 µM (inactive) | 0.562 µM (active) | 2.37 µM (inactive) | 1.82 µM (inactive) | 2.14 µM (inactive) | 0.223 µM (active) | 0.145 µM (active) | 0.479 µM (active) | 1.49 µM (inactive)
9 | O=[N+]([O-])c1ccc(C(Cl)C(Cl)c2ccc(C(Cl)C(Cl)c3ccc([N+](=O)[O-])cc3[N+](=O)[O-])cc2)c([N+](=O)[O-])c1 (stereo not given) | 2.13 µM (inactive) | 0.75 µM (active) | 22.8 µM (inactive) | 1.76 µM (inactive) | 1.89 µM (inactive) | 2.17 µM (inactive) | 1.67 µM (inactive) | 1.86 µM (inactive) | 0.264 µM (active) | 1.95 µM (inactive) | 1.19 | 1.26 µM (inactive) | 0.254 µM (active) | 1.42 µM (inactive) | 1.16 µM (inactive) | 2.3 µM (inactive) | 0.187 µM (active) | 0.931 µM (active) | 1.61 µM (inactive) | 0.879 µM (active)
10 | Cc1ccc(Oc2ccc(C(=O)c3cccc(C(=O)c4ccc(Oc5ccc(C)cc5)cc4)n3)cc2)cc1 | > 100 µM (inactive) | > 100 µM (inactive) | > 100 µM (inactive) | > 100 µM (inactive) | > 100 µM (inactive) | > 100 µM (inactive) | > 100 µM (inactive) | > 100 µM (inactive) | > 100 µM (inactive) | > 100 µM (inactive) | > 100 | > 100 µM (inactive) | > 100 µM (inactive) | > 100 µM (inactive) | > 100 µM (inactive) | > 100 µM (inactive) | > 100 µM (inactive) | > 100 µM (inactive) | > 100 µM (inactive) | > 100 µM (inactive)
11 | O=C1/C(=C\c2cccc(Oc3ccccc3)c2)SC(c2ccccc2)N1c1cc(Cl)ccc1Cl (stereo not given) | 38.1 µM (inactive) | 19 µM (inactive) | > 100 µM (inactive) | 30.8 µM (inactive) | 22.2 µM (inactive) | 37.2 µM (inactive) | 24.3 µM (inactive) | 59 µM (inactive) | 18.2 µM (inactive) | 18.7 µM (inactive) | 35.2 | 33.4 µM (inactive) | 24.8 µM (inactive) | 43.5 µM (inactive) | 31.4 µM (inactive) | 37.1 µM (inactive) | 21.2 µM (inactive) | 17.2 µM (inactive) | 10.4 µM (inactive) | 30.1 µM (inactive)
12 | N#CC[C@@H](O)COc1ccccc1 | > 100 µM (inactive) | > 100 µM (inactive) | > 100 µM (inactive) | > 100 µM (inactive) | > 100 µM (inactive) | > 100 µM (inactive) | > 100 µM (inactive) | > 100 µM (inactive) | > 100 µM (inactive) | > 100 µM (inactive) | > 100 | > 100 µM (inactive) | > 100 µM (inactive) | > 100 µM (inactive) | > 100 µM (inactive) | > 100 µM (inactive) | > 100 µM (inactive) | > 100 µM (inactive) | > 100 µM (inactive) | > 100 µM (inactive)
13 | CN(c1ccc(Cl)cc1)S(=O)(=O)c1ccc([N+](=O)[O-])cc1 | > 100 µM (inactive) | > 100 µM (inactive) | > 100 µM (inactive) | > 100 µM (inactive) | > 100 µM (inactive) | > 100 µM (inactive) | > 100 µM (inactive) | > 100 µM (inactive) | > 100 µM (inactive) | > 100 µM (inactive) | > 100 | > 100 µM (inactive) | > 100 µM (inactive) | > 100 µM (inactive) | > 100 µM (inactive) | > 100 µM (inactive) | > 100 µM (inactive) | > 100 µM (inactive) | > 100 µM (inactive) | > 100 µM (inactive)
14 | COC(=O)CCC(NC(=S)N/N=C(\C)c1nccs1)C(=O)OC (stereo not given) | 67.6 µM (inactive) | 47.5 µM (inactive) | > 100 µM (inactive) | 73.5 µM (inactive) | 56.6 µM (inactive) | 49.3 µM (inactive) | > 100 µM (inactive) | 53 µM (inactive) | > 100 µM (inactive) | > 100 µM (inactive) | 46.3 | 78.2 µM (inactive) | 31.3 µM (inactive) | > 100 µM (inactive) | 28.1 µM (inactive) | > 100 µM (inactive) | 16.2 µM (inactive) | 34.4 µM (inactive) | > 10 µM (inactive) | 41.8 µM (inactive)
